The record followed here is patent US20250257054A1, “SALT FORMS OF A 4H-PYRAN-4-ONE STRUCTURED CYP11 A1 INHIBITOR” (ORION CORPORATION, priority 2021, published 2025).

Common to all, as to type: physicochemical
A short description of data set [1]: Slurry stability of crystalline forms of p-toluenesulfonic acid salt in different water activity conditions (XRPD). The note with it: slurry experiments, 5-40° C., 2-3 weeks; values stated as 'about'; listed as Crystalline form 2 of p-toluenesulfonic acid salt. Here is the method:
(§1) XRPD measurements were performed with the X-ray powder diffractometer Bruker D8 Advance at room temperature, using a copper filled X-ray tube (40 kV×40 mA) as the X-ray source, CuKα (λ=1.5418 Å), a 0.6 mm divergence slit, 2.5° Soller slits on both the primary and secondary beams and the 1-dimensional LynxEye detector (with aperture angle of 2.91593°). Data collection was done in the range of 3.8-33° 2θ with 0.02° increments, at a scan speed of 0.3°/s.
Stability of the crystalline forms of p-toluenesulfonic acid salt in different water activity conditions was studied in slurry experiments where crystalline form 3 was stirred for 2-3 weeks at 5° C., 25° C. and 40° C. in mixtures of ethanol:water, acetonitrile (ACN):water, methanol: water and methanol alone. 0.5 ml of solvent was added to 25 mg of each sample. The resulting crystalline form was determined by XRPD.

Data set [2] in a line: Short-term physical stability of salts at 40° C./75% RH for 2 weeks (XRPD). The settings on record: determined by XRPD. The method, then: as §1
Short-term physical stability of various salts was studied by exposure at 40° C./75% RH for 2 weeks followed by measurement by XRPD.

Data set [3] in a line: Crystalline transformation of form 2 on drying. The settings on record: higher drying temperatures (than about 20-60° C., under reduced pressure). Here is the method: In a preferred method, crystalline form 2 is prepared in high polymorphic purity and in consistent manner by first dissolving compound (I) in a mixture of acetonitrile and water, where the amount of water is from about 5% to about 15%, preferably from 6% to 12%, per volume of the mixture. The amount of compound (I) is suitably from about 5 g to about 15 g, preferably from about 9 g to 13 g, for example, about 11 g, per 100 ml of the solvent. If desired, activated carbon, celite and/or triamine metal scavenger may also be added. The mixture may be heated, for example, to a temperature of about 50-80° C., more specifically to about 70-80° C. The mixture can be thereafter filtered. To the filtrate is then added p-toluenesulfonic acid monohydrate, for example, in about equivalent molar amount, under heating at a temperature of about 50-80° C., more specifically at about 70° C. The mixture may then be cooled to about 60° C. and seeded, if desired. The mixture can then be stirred in this temperature for about 1 h, followed by cooling, for example to about 0-20° C., more specifically to about 5° C., to precipitate the product. The crystalline form 2 can be washed, for example, with water, and dried at about 20-60° C., preferably at about 25-35° C., for example at about 30° C., under reduced pressure. […]

Structures can show the parent of a compound that is named as a salt.

On to `CS(=O)(=O)N1CCC(COc2coc(CN3Cc4ccc(C(F)(F)F)cc4C3)cc2=O)CC1` [p-Toluenesulfonic acid salt (form 2), 5-((1-(methylsulfonyl)-piperidin-4-yl)methoxy)-2-((5-(trifluoromethyl)isoindolin-2-yl)methyl)-4H-pyran-4-one], for which the “Water activity in which the crystalline form is favoured” value in data set [1] is listed as “higher than 0.5”. Also, the “Form after 2 weeks” value in data set [2] is on record as “No change”. In data set [3], the “Crystalline transformation on drying” value is recorded as “some transformation of crystalline form 2 into crystalline form 1”.
